{
  "source": "patent US20150148551A1",
  "about": "“GENISTEIN FOR REDUCING LEVELS OF STORAGE COMPOUNDS IN THE TREATMENT AND/OR PREVENTION OF LYSOSOMAL STORAGE DISEASES (LSDS)” (3G THERAPEUTICS, INC., priority 2012, published 2015)",
  "format_in_all_cases": "cell-based, human",
  "key": {"[1]": {"system": "AGA", "experiment": "DNA microarray, AGA expression in fibroblasts exposed to genistein", "details": "for AGA fold change Average: 48 h vs DMSO", "description": "(§1) The experiments were conducted to characterise the transcriptomic profile of human fibroblast cells exposed to genistein, and in particular to determine the expression of genes encoding lysosomal enzymes involved in metabolism (i.e. synthesis and degradation) of organic substances. The absence or deficiency of these enzymes' activity is responsible for occurrence of various lysosomal storage diseases (LSD) (including MPS). The tested hypothesis assumed that genistein influences the expression of many genes, among which there are genes coding for enzymes required in metabolism of compounds, which are pathologically stored in LSD. The results provide important information regarding genistein action on the molecular level within the range of gene expression modulation by this substance. The experiment was conducted in biological quintuplicates. Human dermal fibroblasts (HDFa) were exposed in vitro for 1, 24 or 48 hours to: 30, 60 or 100 μM of genistein; 0.05% DMSO (K1); or were untreated (control cells) (K2), and total RNA was isolated and analysed.\n(§2) Fibroblast cells were grown in Dulbecco (DMEM) medium supplemented with 10% fetal bovine serum (FBS) with the addition of 1% antibiotics and anti-fungal agents at 37° C. in humidified atmosphere of 5% CO2, until the required confluency was obtained.\n(§3) To determine the effect of tested compound on the transcriptom of the fibroblast cells, the growth medium was replaced with fresh medium, either non-supplemented (0.05% DMSO), or containing genistein (30, 60 or 100 μM, in 0.05% DMSO). The exposure was done for 1, 24 or 48 hours.\n(§4) Total RNA was isolated from fibroblasts using High Pure RNA Isolation Kit according to the protocol and then it was quantitatively evaluated using Quant-It™ RiboGreen® Assay Kit.\n(§5) Biotinylated cRNA was prepared using Ambion Total PrepAmp Kit for Illumina arrays.\n(§6) Standard hybridization and quantitative image analysis procedures—Illumina hybridization protocol and Illumina scanning protocol, were used.\n(§7) Processing of the results was done during data definition, including: background correction (using background subtraction method), normalization (using quantile normalization algorithm with Illumina GenomeStudio software package: gene expression module version 1.9.0) and summarization (using method, which sums the values of signal intensities from a set of probes)."}, "[2]": {"system": "NEU1", "experiment": "DNA microarray, NEU1 expression in fibroblasts exposed to genistein", "details": "for NEU1 fold change Average: 48 h vs DMSO", "description": "as §1, §2, §3, §4, §5, §6, §7"}, "[3]": {"system": "LGMN", "experiment": "DNA microarray, LGMN expression in fibroblasts exposed to genistein", "details": "for LGMN fold change Average: 48 h vs DMSO", "description": "as §1, §2, §3, §4, §5, §6, §7"}, "[4]": {"system": "MAN2B1", "experiment": "DNA microarray, MAN2B1 expression in fibroblasts exposed to genistein", "details": "for MAN2B1 fold change Average: 48 h vs DMSO", "description": "as §1, §2, §3, §4, §5, §6, §7"}, "[5]": {"system": "NAGLU", "experiment": "DNA microarray, NAGLU expression in fibroblasts exposed to genistein", "details": "for NAGLU fold change Average: 48 h vs DMSO", "description": "as §1, §2, §3, §4, §5, §6, §7"}, "[6]": {"system": "ABCA9", "experiment": "DNA microarray, ABCA9 expression in fibroblasts exposed to genistein", "details": "for ABCA9 fold change Average: 48 h vs DMSO", "description": "as §1, §2, §3, §4, §5, §6, §7"}, "[7]": {"system": "ACP5", "experiment": "DNA microarray, ACP5 expression in fibroblasts exposed to genistein", "details": "for ACP5 fold change Average: 48 h vs DMSO", "description": "as §1, §2, §3, §4, §5, §6, §7"}, "[8]": {"system": "GNPTAB", "experiment": "DNA microarray, GNPTAB expression in fibroblasts exposed to genistein", "details": "for GNPTAB fold change Average: 48 h vs DMSO", "description": "as §1, §2, §3, §4, §5, §6, §7"}, "[9]": {"system": "CHST14", "experiment": "DNA microarray, CHST14 expression in fibroblasts exposed to genistein", "details": "30 μM, 1 h vs 0.05% DMSO", "description": "as §1, §2, §3, §4, §5, §6, §7"}},
  "data": [
    {"smiles": "O=c1c(-c2ccc(O)cc2)coc2cc(O)cc(O)c12", "note": "[genistein, 4′,5,7-trihydroxy-3-phenylchromen-4-one]", "values": [
      {"measurement": "AGA fold change Average 1h30/1hK1", "setting": "[1]; 30 μM, 1 h vs 0.05% DMSO", "result": 1.0395, "unit": "fold change"},
      {"measurement": "AGA fold change Average", "setting": "[1]; 30 μM", "result": 1.3732, "unit": "fold change"},
      {"measurement": "AGA fold change Average 1h60/1hK1", "setting": "[1]; 60 μM, 1 h vs 0.05% DMSO", "result": 0.9753, "unit": "fold change"},
      {"measurement": "AGA fold change Average", "setting": "[1]; 60 μM", "result": 1.864, "unit": "fold change"},
      {"measurement": "AGA fold change Average 1h100/1hK1", "setting": "[1]; 100 μM, 1 h vs 0.05% DMSO", "result": 0.9749, "unit": "fold change"},
      {"measurement": "AGA fold change Average", "setting": "[1]; 100 μM", "result": 2.33, "unit": "fold change"},
      {"measurement": "NEU1 fold change Average 1h30/1hK1", "setting": "[2]; 30 μM, 1 h vs 0.05% DMSO", "result": 1.2206, "unit": "fold change"},
      {"measurement": "NEU1 fold change Average", "setting": "[2]; 30 μM", "result": 1.6536, "unit": "fold change"},
      {"measurement": "NEU1 fold change Average 1h60/1hK1", "setting": "[2]; 60 μM, 1 h vs 0.05% DMSO", "result": 1.323, "unit": "fold change"},
      {"measurement": "NEU1 fold change Average", "setting": "[2]; 60 μM", "result": 2.259, "unit": "fold change"},
      {"measurement": "NEU1 fold change Average 1h100/1hK1", "setting": "[2]; 100 μM, 1 h vs 0.05% DMSO", "result": 1.353, "unit": "fold change"},
      {"measurement": "NEU1 fold change Average", "setting": "[2]; 100 μM", "result": 2.492, "unit": "fold change"},
      {"measurement": "LGMN fold change Average 1h30/1hK1", "setting": "[3]; 30 μM, 1 h vs 0.05% DMSO", "result": 0.9392, "unit": "fold change"},
      {"measurement": "LGMN fold change Average", "setting": "[3]; 30 μM", "result": 1.3309, "unit": "fold change"},
      {"measurement": "LGMN fold change Average 1h60/1hK1", "setting": "[3]; 60 μM, 1 h vs 0.05% DMSO", "result": 0.9963, "unit": "fold change"},
      {"measurement": "LGMN fold change Average", "setting": "[3]; 60 μM", "result": 1.61, "unit": "fold change"},
      {"measurement": "LGMN fold change Average 1h100/1hK1", "setting": "[3]; 100 μM, 1 h vs 0.05% DMSO", "result": 0.8978, "unit": "fold change"},
      {"measurement": "LGMN fold change Average", "setting": "[3]; 100 μM", "result": 1.833, "unit": "fold change"},
      {"measurement": "MAN2B1 fold change Average 1h30/1hK1", "setting": "[4]; 30 μM, 1 h vs 0.05% DMSO", "result": 1.0342, "unit": "fold change"},
      {"measurement": "MAN2B1 fold change Average", "setting": "[4]; 30 μM", "result": 1.036, "unit": "fold change"},
      {"measurement": "MAN2B1 fold change Average 1h60/1hK1", "setting": "[4]; 60 μM, 1 h vs 0.05% DMSO", "result": 0.8507, "unit": "fold change"},
      {"measurement": "MAN2B1 fold change Average", "setting": "[4]; 60 μM", "result": 1.586, "unit": "fold change"},
      {"measurement": "MAN2B1 fold change Average 1h100/1hK1", "setting": "[4]; 100 μM, 1 h vs 0.05% DMSO", "result": 0.9864, "unit": "fold change"},
      {"measurement": "MAN2B1 fold change Average", "setting": "[4]; 100 μM", "result": 1.924, "unit": "fold change"},
      {"measurement": "NAGLU fold change Average 1h30/1hK1", "setting": "[5]; 30 μM, 1 h vs 0.05% DMSO", "result": 1.055, "unit": "fold change"},
      {"measurement": "NAGLU fold change Average", "setting": "[5]; 30 μM", "result": 1.1022, "unit": "fold change"},
      {"measurement": "NAGLU fold change Average 1h60/1hK1", "setting": "[5]; 60 μM, 1 h vs 0.05% DMSO", "result": 1.061, "unit": "fold change"},
      {"measurement": "NAGLU fold change Average", "setting": "[5]; 60 μM", "result": 1.231, "unit": "fold change"},
      {"measurement": "NAGLU fold change Average 1h100/1hK1", "setting": "[5]; 100 μM, 1 h vs 0.05% DMSO", "result": 1.037, "unit": "fold change"},
      {"measurement": "NAGLU fold change Average", "setting": "[5]; 100 μM", "result": 1.303, "unit": "fold change"},
      {"measurement": "ABCA9 fold change Average 1h30/1hK1", "setting": "[6]; 30 μM, 1 h vs 0.05% DMSO", "result": 1.0096, "unit": "fold change"},
      {"measurement": "ABCA9 fold change Average", "setting": "[6]; 30 μM", "result": 1.3825, "unit": "fold change"},
      {"measurement": "ABCA9 fold change Average 1h60/1hK1", "setting": "[6]; 60 μM, 1 h vs 0.05% DMSO", "result": 1.129, "unit": "fold change"},
      {"measurement": "ABCA9 fold change Average 1h100/1hK1", "setting": "[6]; 100 μM, 1 h vs 0.05% DMSO", "result": 0.9831, "unit": "fold change"},
      {"measurement": "ABCA9 fold change Average", "setting": "[6]; 100 μM", "result": 1.635, "unit": "fold change"},
      {"measurement": "ACP5 fold change Average 1h30/1hK1", "setting": "[7]; 30 μM, 1 h vs 0.05% DMSO", "result": 0.9865, "unit": "fold change"},
      {"measurement": "ACP5 fold change Average", "setting": "[7]; 30 μM", "result": 1.6259, "unit": "fold change"},
      {"measurement": "ACP5 fold change Average 1h60/1hK1", "setting": "[7]; 60 μM, 1 h vs 0.05% DMSO", "result": 1.066, "unit": "fold change"},
      {"measurement": "ACP5 fold change Average", "setting": "[7]; 60 μM", "result": 1.7507, "unit": "fold change"},
      {"measurement": "ACP5 fold change Average 1h100/1hK1", "setting": "[7]; 100 μM, 1 h vs 0.05% DMSO", "result": 1.141, "unit": "fold change"},
      {"measurement": "ACP5 fold change Average", "setting": "[7]; 100 μM", "result": 1.763, "unit": "fold change"},
      {"measurement": "GNPTAB fold change Average 1h30/1hK1", "setting": "[8]; 30 μM, 1 h vs 0.05% DMSO", "result": 0.7878, "unit": "fold change"},
      {"measurement": "GNPTAB fold change Average", "setting": "[8]; 30 μM", "result": 1.6393, "unit": "fold change"},
      {"measurement": "GNPTAB fold change Average 1h60/1hK1", "setting": "[8]; 60 μM, 1 h vs 0.05% DMSO", "result": 1.235, "unit": "fold change"},
      {"measurement": "GNPTAB fold change Average 1h100/1hK1", "setting": "[8]; 100 μM, 1 h vs 0.05% DMSO", "result": 0.8628, "unit": "fold change"},
      {"measurement": "GNPTAB fold change Average", "setting": "[8]; 100 μM", "result": 1.872, "unit": "fold change"},
      {"measurement": "CHST14 fold change Average 1h30/1hK1", "setting": "[9]", "result": 1.007, "unit": "fold change"}
    ]}
  ]
}
